Source: ChEMBL document CHEMBL4387741, “Optimization of novel reversible Bruton's tyrosine kinase inhibitors identified using Tethering-fragment-based screens” (Bioorg Med Chem, 2019)

Columns and labels:
[1] = biological target: Serine/threonine-protein kinase SIK1 (Homo sapiens) (UniProt P57059); test: Inhibition of wild-type human partial length SIK (M1 to Y304 residues) expressed in bacterial expression system at 1 uM by Kinomescan method relative to control
[2] = biological target: Cyclin-dependent kinase 19 (Homo sapiens) (UniProt Q9BWU1); test: Inhibition of wild-type human partial length CDK11 (M1 to N360 residues) expressed in bacterial expression system at 1 uM by Kinomescan method relative to control
[3] = biological target: Leucine-rich repeat serine/threonine-protein kinase 2 (Homo sapiens) (UniProt Q5S007); test: Inhibition of wild-type human partial length LRRK2 (H970 to E2527 residues) expressed in mammalian expression system at 1 uM by Kinomescan method relative to control
[4] = biological target: Tyrosine-protein kinase JAK2 (Homo sapiens) (UniProt O60674); test: Inhibition of wild-type human partial length JAK2 JH1 catalytic domain (A829 to G1132 residues) expressed in mammalian expression system at 1 uM by Kinomescan method relative to control
[5] = biological target: Macrophage colony-stimulating factor 1 receptor (Homo sapiens) (UniProt P07333); test: Inhibition of wild-type human partial length CSF1R (I564 to S939 residues) expressed in bacterial expression system at 1 uM by Kinomescan method relative to control
[6] = biological target: Serine/threonine-protein kinase TAO3 (Homo sapiens) (UniProt Q9H2K8); test: Inhibition of wild-type human partial length TAOK3 (M1 to T316 residues) expressed in mammalian expression system at 1 uM by Kinomescan method relative to control
[7] = biological target: Cyclin-dependent kinase-like 3 (Homo sapiens) (UniProt Q8IVW4); test: Inhibition of wild-type human partial length CDKL3 (M1 to D327 residues) expressed in bacterial expression system at 1 uM by Kinomescan method relative to control
[8] = biological target: NUAK family SNF1-like kinase 2 (Homo sapiens) (UniProt Q9H093); test: Inhibition of wild-type human partial length SNARK (P22 to A333 residues) expressed in mammalian expression system at 1 uM by Kinomescan method relative to control
[9] = biological target: Mitogen-activated protein kinase 4 (Homo sapiens) (UniProt P31152); test: Inhibition of wild-type human partial length ERK4 (M1 to L365 residues) expressed in bacterial expression system at 1 uM by Kinomescan method relative to control
[10] = biological target: Serine/threonine-protein kinase BRSK1 (Homo sapiens) (UniProt Q8TDC3); test: Inhibition of wild-type human partial length BRSK1 (M1 to E754 residues) expressed in bacterial expression system at 1 uM by Kinomescan method relative to control
[11] = biological target: Glycogen synthase kinase-3 alpha (Homo sapiens) (UniProt P49840); test: Inhibition of wild-type human full length GSK3A (M1 to S483 residues) expressed in bacterial expression system at 1 uM by Kinomescan method relative to control
[12] = tested on: Receptor-type tyrosine-protein kinase FLT3 (Homo sapiens), P36888 [K663Q]; test: Inhibition of human partial length FLT3 K663Q mutant (V592 to Y969 residues) expressed in bacterial expression system at 1 uM by Kinomescan method relative to control
[13] = biological target: Ribosomal protein S6 kinase alpha-1 (Homo sapiens) (UniProt Q15418); test: Inhibition of wild-type human partial length C-terminal RSK1 kinase domain 2 (P360 to L681 residues) expressed in bacterial expression system at 1 uM by Kinomescan method relative to control
[14] = biological target: Phosphatidylinositol 4,5-bisphosphate 3-kinase catalytic subunit alpha isoform (Homo sapiens) (UniProt P42336); test: Inhibition of wild-type human partial length PIK3CA (R108 to N1068 residues) expressed in mammalian expression system at 1 uM by Kinomescan method relative to control
[15] = biological target: TGF-beta receptor type-2 (Homo sapiens) (UniProt P37173); test: Inhibition of wild-type human partial length TGFBR2 (I218 to K567 residues) expressed in bacterial expression system at 1 uM by Kinomescan method relative to control
[16] = biological target: Ephrin type-A receptor 1 (Homo sapiens) (UniProt P21709); test: Inhibition of wild-type human partial length EPHA1 (V588 to I913 residues) expressed in bacterial expression system at 1 uM by Kinomescan method relative to control
[17] = biological target: Casein kinase II subunit alpha' (Homo sapiens) (UniProt P19784); test: Inhibition of wild-type human full length CSNK2A2 (M1 to R350 residues) expressed in mammalian expression system at 1 uM by Kinomescan method relative to control
[18] = tested on: Tyrosine-protein kinase ABL1 (Homo sapiens), P00519 [H396P]; test: Inhibition of human phosphorylated ABL1 H396P mutant (S229 to K512 residues) expressed in mammalian expression system at 10 uM by Kinomescan method relative to control
[19] = biological target: Serine/threonine-protein kinase N1 (Homo sapiens) (UniProt Q16512); test: Inhibition of wild-type human partial length PKN1 (E598 to C948 residues) expressed in bacterial expression system at 10 uM by Kinomescan method relative to control
[20] = biological target: Protein kinase C eta type (Homo sapiens) (UniProt P24723); test: Inhibition of wild-type human partial length PRKCH (S324 to P683 residues) expressed in bacterial expression system at 10 uM by Kinomescan method relative to control
[21] = biological target: Serine/threonine-protein kinase 32C (Homo sapiens) (UniProt Q86UX6); test: Inhibition of wild-type human partial length YANK3 (M68 to G486 residues) expressed in bacterial expression system at 10 uM by Kinomescan method relative to control
[22] = biological target: Ribosomal protein S6 kinase alpha-6 (Homo sapiens) (UniProt Q9UK32); test: Inhibition of wild-type human partial length N-terminal RSK4 kinase domain 1 (M1 to E397 residues) expressed in mammalian expression system at 10 uM by Kinomescan method relative to control
[23] = biological target: Calcium/calmodulin-dependent protein kinase kinase 2 (Homo sapiens) (UniProt Q96RR4); test: Inhibition of wild-type human partial length CAMKK2 (D65 to V471 residues) expressed in bacterial expression system at 10 uM by Kinomescan method relative to control
[24] = biological target: Serine/threonine-protein kinase 25 (Homo sapiens) (UniProt O00506); test: Inhibition of wild-type human partial length YSK1 (V14 to H295 residues) expressed in bacterial expression system at 10 uM by Kinomescan method relative to control
[25] = biological target: Citron Rho-interacting kinase (Homo sapiens) (UniProt O14578); test: Inhibition of wild-type human partial length CIT (M68 to E432 residues) expressed in bacterial expression system at 10 uM by Kinomescan method relative to control
[26] = biological target: Cyclin-dependent kinase 8 (Homo sapiens) (UniProt P49336); test: Inhibition of wild-type human partial length CDK8 (M1 to T360 residues) expressed in bacterial expression system at 10 uM by Kinomescan method relative to control
[27] = biological target: Ribosomal protein S6 kinase alpha-5 (Homo sapiens) (UniProt O75582); test: Inhibition of wild-type human partial length N-terminal RPS6KA5 kinase domain 1 expressed in bacterial expression system at 10 uM by Kinomescan method relative to control

`O=C(Nc1cccc([C@@H]2CN(c3ncnc4[nH]ccc34)CCN2CCO)c1)Nc1c(F)cccc1N1CCCC1` was tested, and the inhibition [1] was 55%, the inhibition [2] was 100% and the inhibition [3] was 100%. It also gave an inhibition [4] of 0%, an inhibition [5] of 67% and an inhibition [6] of 88%. It also gave an inhibition [7] of 100%, an inhibition [8] of 6.1% and an inhibition [9] of 100%. The inhibition [10] was 100%, the inhibition [11] was 100% and the inhibition [12] was 42%. It also gave an inhibition [13] of 88%, an inhibition [14] of 100% and an inhibition [15] of 100%. The inhibition [16] was 100% and the inhibition [17] was 81%.

For `O=C(Nc1cccc([C@H]2CCCN(c3ncnc4[nH]ccc34)C2)c1)Nc1ccccc1N1CCCC1`, the inhibition [18] was 51%, the inhibition [19] was 100% and the inhibition [20] was 71%. It also gave an inhibition [21] of 100%, an inhibition [22] of 34% and an inhibition [23] of 92%. For the same compound, the inhibition [24] was 100%, the inhibition [25] was 0.2% and the inhibition [26] was 53%. It also gave an inhibition [27] of 100%.
